The values below come from ChEMBL document CHEMBL1201862, “PubChem BioAssay data set” (2004).

In assay [1] the target is T1, Trace amine-associated receptor 1 (Homo sapiens, UniProt Q96RJ0).
T1 sequence (Q96RJ0 whole entry): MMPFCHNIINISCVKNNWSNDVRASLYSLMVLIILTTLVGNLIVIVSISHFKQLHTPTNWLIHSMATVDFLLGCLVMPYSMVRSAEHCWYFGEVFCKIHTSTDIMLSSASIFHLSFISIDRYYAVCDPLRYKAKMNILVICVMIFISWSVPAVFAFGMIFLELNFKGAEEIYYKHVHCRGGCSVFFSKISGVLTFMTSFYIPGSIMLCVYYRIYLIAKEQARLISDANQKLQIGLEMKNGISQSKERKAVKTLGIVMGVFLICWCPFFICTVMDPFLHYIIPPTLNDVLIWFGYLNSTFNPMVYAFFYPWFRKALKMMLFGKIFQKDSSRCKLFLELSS
The assay can be described thus: Fluorescence-based cell-based high throughput dose response assay to identify agonists of the human trace amine associated receptor 1 (TAAR1). It is filed as functional.

Assay [2] is described as follows: cells. The class given is functional, cell-based.
Assay [3] in a line: cells. The class given is functional, cell-based. This is another data set of the same source.
Assay [4] addresses T1, Trace amine-associated receptor 1. The assay can be described thus: Counterscreen for agonists of the human trace amine associated receptor 1 (hTAAR1): Fluorescence-based cell-based high throughput dose response assay to identify hTAAR1 agonist that also desensitize TAAR1 receptor response. The class given is functional.
Another assay concerns the target T2, fMet-Leu-Phe receptor (Homo sapiens, UniProt P21462).
T2 sequence (P21462 whole entry): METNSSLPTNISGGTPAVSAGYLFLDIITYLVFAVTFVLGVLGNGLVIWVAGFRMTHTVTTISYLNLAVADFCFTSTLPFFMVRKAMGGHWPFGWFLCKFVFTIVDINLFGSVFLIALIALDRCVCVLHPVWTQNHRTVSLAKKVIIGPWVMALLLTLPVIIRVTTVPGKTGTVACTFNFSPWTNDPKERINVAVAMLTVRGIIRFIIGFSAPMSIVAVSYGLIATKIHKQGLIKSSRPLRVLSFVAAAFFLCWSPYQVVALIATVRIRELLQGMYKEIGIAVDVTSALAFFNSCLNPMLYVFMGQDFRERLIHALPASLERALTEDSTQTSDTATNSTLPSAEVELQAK
The assay can be described thus: formyl peptide receptor binders – dose response (AID 519). It is filed as functional.

Assay [5] can be described thus: cells.
Assay [6] in a line: NIH-3T3 fibroblast cytotoxicity, dose response, cytotoxicity control, cell-based, fluorescence, Alamar Blue, secondary assay (AID 2327).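 Also: NIH-3T3 mouse fibroblasts cultured with fluconazole at 8 µg/mL.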 It is filed as functional. A general note: The colour change of resazurin is a common sign of viable cells or microbes.
Assay [7] can be described thus: fluconazole-exposed Candida albicans growth modulators – fluorescence, retest, confirmation (AID 2467). The class given is functional, cell-based.
The target in assay [8] is T3, Oxysterols receptor LXR-beta (Homo sapiens, UniProt P55055).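 Also: Cell-based luminescence dose-response assay of agonist activity at LXR, run as a confirmatory counterscreen to a daf-12 agonist screen; HEK293 cells with Gal4-LXR fusion and GAL4-driven luciferase reporter; agonist potency from rising luciferase signal of a Gal4-LXR reporter.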
T3 sequence (P55055 whole entry): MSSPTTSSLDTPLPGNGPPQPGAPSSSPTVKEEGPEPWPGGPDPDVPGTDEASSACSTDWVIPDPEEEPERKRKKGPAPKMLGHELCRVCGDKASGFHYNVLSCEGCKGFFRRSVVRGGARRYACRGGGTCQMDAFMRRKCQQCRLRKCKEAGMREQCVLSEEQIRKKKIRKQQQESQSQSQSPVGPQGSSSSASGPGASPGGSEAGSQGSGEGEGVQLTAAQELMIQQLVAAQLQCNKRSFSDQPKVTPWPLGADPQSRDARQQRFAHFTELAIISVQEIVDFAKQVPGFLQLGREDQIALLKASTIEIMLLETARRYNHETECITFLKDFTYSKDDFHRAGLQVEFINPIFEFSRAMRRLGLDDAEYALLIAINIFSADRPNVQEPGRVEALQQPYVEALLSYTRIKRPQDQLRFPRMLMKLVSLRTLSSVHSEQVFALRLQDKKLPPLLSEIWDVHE
The class given is functional, cell-based.

For assay [9], the target named is T4, Methionyl-tRNA synthetase, putative (Trypanosoma brucei brucei, UniProt Q38C91).
T4 sequence (Q38C91 whole entry): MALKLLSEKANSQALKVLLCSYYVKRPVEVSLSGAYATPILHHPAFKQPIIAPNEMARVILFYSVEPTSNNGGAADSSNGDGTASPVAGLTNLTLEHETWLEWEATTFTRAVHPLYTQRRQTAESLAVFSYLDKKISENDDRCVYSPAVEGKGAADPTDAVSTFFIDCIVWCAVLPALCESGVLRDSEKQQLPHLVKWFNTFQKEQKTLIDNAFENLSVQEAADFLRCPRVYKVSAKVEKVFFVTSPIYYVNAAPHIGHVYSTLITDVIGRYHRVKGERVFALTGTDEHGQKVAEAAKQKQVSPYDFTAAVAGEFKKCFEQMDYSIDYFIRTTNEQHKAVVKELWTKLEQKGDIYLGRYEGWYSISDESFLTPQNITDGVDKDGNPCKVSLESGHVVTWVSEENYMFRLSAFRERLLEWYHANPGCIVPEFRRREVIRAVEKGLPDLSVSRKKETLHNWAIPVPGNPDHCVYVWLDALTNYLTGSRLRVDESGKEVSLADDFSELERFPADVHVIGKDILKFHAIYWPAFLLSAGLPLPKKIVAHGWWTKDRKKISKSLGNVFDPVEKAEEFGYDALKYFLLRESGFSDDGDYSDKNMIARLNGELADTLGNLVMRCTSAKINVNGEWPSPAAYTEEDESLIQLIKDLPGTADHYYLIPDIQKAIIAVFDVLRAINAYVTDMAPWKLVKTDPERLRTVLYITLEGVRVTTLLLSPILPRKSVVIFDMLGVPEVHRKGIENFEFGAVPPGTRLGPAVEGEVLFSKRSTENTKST
The class given is functional, Trypanosoma brucei brucei strain 927/4 GUTat10.1.

The nature of assay [10]: Counterscreen for inhibitors of Trypanosoma brucei methionyl tRNA synthetase (MetRS): Luminescence-based cell-based high throughput dose response assay to identify compounds that are cytotoxic to Jurkat human T lymphocyte cells. The class given is functional.
Assay [11] deals with T4, Methionyl-tRNA synthetase, putative. It is filed as functional, Trypanosoma brucei brucei strain 927/4 GUTat10.1. This is another data set of the same source.
Another assay concerns the target Genome polyprotein (dengue virus type 2, UniProt P29990). The assay can be described thus: flavivirus cap methylation enzyme inhibition – biochemical, confirmation dose response, primary screen (AID 588689). It is filed as functional.
Another assay has as its target T5, Leucine aminopeptidase (Plasmodium falciparum 3D7, UniProt Q8IL11).
T5 sequence (Q8IL11 whole entry): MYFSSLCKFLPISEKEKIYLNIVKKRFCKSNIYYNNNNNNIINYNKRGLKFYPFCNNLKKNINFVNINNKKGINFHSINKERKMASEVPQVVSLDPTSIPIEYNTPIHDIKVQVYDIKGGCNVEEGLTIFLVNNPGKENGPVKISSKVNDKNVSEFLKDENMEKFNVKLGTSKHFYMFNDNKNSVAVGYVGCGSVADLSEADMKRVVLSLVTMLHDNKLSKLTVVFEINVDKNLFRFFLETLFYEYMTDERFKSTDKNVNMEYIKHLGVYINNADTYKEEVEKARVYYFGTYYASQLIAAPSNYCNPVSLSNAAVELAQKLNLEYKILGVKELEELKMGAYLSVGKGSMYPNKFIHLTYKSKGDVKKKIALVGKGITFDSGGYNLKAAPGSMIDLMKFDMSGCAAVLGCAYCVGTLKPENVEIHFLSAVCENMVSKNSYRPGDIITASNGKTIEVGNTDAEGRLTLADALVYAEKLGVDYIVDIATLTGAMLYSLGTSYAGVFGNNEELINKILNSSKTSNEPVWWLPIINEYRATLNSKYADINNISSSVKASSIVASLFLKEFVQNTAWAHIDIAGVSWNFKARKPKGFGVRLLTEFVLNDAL
The assay can be described thus: P. falciparum M17LAP inhibitors, primary screen, biochemical, fluorogenic H-Leu-NHMec substrate, 1536-well (AID 1619). The class given is functional.

The target of assay [12] is T6, Nuclear receptor subfamily 0 group B member 1 (Homo sapiens, UniProt P51843).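 Also: HEK293T cells transfected with SF-1 and DAX-1 plus StAR promoter luciferase reporter.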
T6 sequence (P51843 whole entry): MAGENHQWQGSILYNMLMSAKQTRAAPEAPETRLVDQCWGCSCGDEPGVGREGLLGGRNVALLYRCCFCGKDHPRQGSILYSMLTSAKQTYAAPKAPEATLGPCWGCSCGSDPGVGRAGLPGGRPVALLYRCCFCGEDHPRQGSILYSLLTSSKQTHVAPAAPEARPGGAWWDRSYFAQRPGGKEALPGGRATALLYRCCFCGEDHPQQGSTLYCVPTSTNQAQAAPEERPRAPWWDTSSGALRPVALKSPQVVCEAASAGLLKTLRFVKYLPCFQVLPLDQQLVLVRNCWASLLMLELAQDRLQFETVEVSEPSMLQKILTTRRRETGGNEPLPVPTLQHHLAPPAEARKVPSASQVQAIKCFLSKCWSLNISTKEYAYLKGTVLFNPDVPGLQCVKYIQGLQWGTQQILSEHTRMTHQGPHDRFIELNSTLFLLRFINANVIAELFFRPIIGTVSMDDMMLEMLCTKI
The class given is functional, cell-based.

Assay [13] in a line: cells. It is filed as functional, cell-based. This is another data set of the same source.
The next assay concerns H4. Put plainly: Luminescence Cell-Based Dose Response HTS to Identify Activators of 5'UTR Stem-Loop Driven Prion Protein mRNA Translation in H4 Neuroglioblastoma Cells. [Related pubchem assays: 1829 (Project Summary), 1814 (Primary HTS)]. It is filed as functional. To be noted: Homo sapiens.
Assay [14] can be described thus: Luminescence Cell-Based Dose Response HTS to Identify Activators of Luciferase Translation or Activity in H4 […] Cells. [Related pubchem assays: 1829 (Project Summary), 1814 (Primary HTS)]. It is filed as functional.

What is called EC50 is the midpoint of the concentration-response curve. The IC50 is the concentration at which inhibition is half-maximal. The term Ki denotes a measure of affinity in units of concentration, obtained from inhibition or displacement.

The source made the active and inactive calls.

Genome polyprotein, sequence (P29990 2492-3391 limits assumed): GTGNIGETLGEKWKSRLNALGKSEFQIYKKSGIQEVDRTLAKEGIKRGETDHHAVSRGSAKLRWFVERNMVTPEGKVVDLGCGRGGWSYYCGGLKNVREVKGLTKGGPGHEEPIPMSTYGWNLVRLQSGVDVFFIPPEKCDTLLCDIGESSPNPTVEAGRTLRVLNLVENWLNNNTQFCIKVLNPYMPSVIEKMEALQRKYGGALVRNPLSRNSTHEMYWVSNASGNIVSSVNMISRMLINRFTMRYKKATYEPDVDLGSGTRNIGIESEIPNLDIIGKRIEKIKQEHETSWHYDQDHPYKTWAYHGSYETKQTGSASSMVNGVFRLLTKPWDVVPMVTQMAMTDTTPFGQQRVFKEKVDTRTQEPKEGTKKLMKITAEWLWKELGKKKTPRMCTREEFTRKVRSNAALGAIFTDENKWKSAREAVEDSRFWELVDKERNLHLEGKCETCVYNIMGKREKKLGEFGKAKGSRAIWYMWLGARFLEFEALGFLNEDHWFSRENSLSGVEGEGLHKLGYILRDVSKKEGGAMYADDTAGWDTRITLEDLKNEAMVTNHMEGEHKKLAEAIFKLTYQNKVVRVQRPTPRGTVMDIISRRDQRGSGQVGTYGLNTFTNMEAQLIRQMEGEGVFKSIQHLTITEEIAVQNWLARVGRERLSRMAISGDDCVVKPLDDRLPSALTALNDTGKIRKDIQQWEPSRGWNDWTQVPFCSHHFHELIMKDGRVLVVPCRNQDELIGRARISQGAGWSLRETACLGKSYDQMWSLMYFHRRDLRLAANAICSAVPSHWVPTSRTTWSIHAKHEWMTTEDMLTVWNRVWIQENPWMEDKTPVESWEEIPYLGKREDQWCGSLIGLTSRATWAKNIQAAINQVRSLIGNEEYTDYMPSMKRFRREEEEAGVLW

As to `O=C(NCCc1ccccc1)C(c1ccncc1)N(C(=O)c1csnn1)C1CC1` (stereo unspecified), the half-maximal effective concentration (EC50) in assay [1] was 2.11 µM (active); in “cells [2]” it was > 29.9 µM (inactive). The IC50 is > 29.9 µM (inactive) in the assay “cells [3]” and 7.59 µM (active) in assay [4].
Take `Clc1ccc(Cc2nn3c(-c4ccncc4)nnc3s2)cc1`: on fMet-Leu-Phe receptor, the Ki is > 66.7 µM (inactive).
With `COc1ccc(-c2csc(-c3ccccc3)n2)c(OC)c1`, the EC50 in “cells [5]” was > 67.5 µM (inactive); in assay [6] it was > 160 µM (inactive); in assay [7] it was 6.64 µM (active); in assay [8], > 67.5 µM (inactive).
`NC(=O)c1cccc(-c2ccnc3c2CC(C(=O)Nc2ccc(Cl)cc2)O3)c1` (stereo unspecified): the results for the IC50 in assay [9], in [10] and in [11] were 8.03 µM (active), 58.1 µM (inactive) and 18.7 µM (inactive), respectively.
In the case of `Cc1ccc(C2C(C(=O)c3ccc(Br)cc3)=C(O)C(=O)N2Cc2ccco2)o1` (stereo unspecified), the IC50 on Genome polyprotein was > 100 µM (active); on Leucine aminopeptidase, 66.4 µM (active). In addition, at fMet-Leu-Phe receptor, the Ki is > 66.7 µM (inactive).
`COC(=O)/C(=C\Nc1ccccc1)NC(=O)c1ccc(Cl)cc1Cl`: the IC50 in assay [9] was 2.71 µM (active); in assay [10], 83.3 µM (inactive); in [11], 6.89 µM (active).
Turning to `O=C(Nc1ccc(N2CCCC2)cc1)c1cccc(F)c1`, the IC50 (in [12]; in the assay “cells [13]”) was > 67.5 µM (inactive) in each case.
In the case of `CCCC(=O)N1CCCC(c2cc(C(=O)Nc3ccc4c(c3)OCO4)no2)C1` (stereo unspecified), the IC50 (in assay [12]; in the assay “cells [13]”) was > 67.6 µM (inactive) each time.
With `Oc1[nH]cnc2nc(-c3ccc(N(CCCl)CCCl)cc3)nc1-2`, the IC50 in “cells [13]” was > 67.6 µM (inactive).
`O=C(NC1=NCCS1)c1sc2cc(F)ccc2c1Cl`: the EC50 (in the assay “cells [5]”; in [8]) was > 67.6 µM (inactive) throughout.
As for `CCN1C(=O)C(CC(=O)Nc2ccc(OC)cc2)N(CCc2ccccc2)C1=S` (stereo unspecified), the figures for the IC50 in assay [9], in assay [10] and in assay [11] were 15 µM (inactive), 38.9 µM (inactive) and 23.5 µM (inactive), respectively.
On to `O=c1[nH]cnc2nc(-c3ccc(N(CCCl)CCCl)cc3)[nH]c12`, for which, in assay [12], the IC50 is > 67.6 µM (inactive).
`CC(C)OC(=O)c1cc(NC(=O)C2C3CCC(O3)C2C(=O)O)cc(C(=O)OC(C)C)c1` (stereo unspecified): on fMet-Leu-Phe receptor, the Ki is 41.5 µM (inactive).
In the case of `O=C(c1c(Cl)nc2sccn12)N(C(=O)c1c(Cl)nc2sccn12)c1ccc(Cl)cn1`, the EC50 (in the assay “cells [5]”; in assay [8]) was > 67.5 µM (inactive) throughout.
Consider `Cc1cc(C2=NN=C(NCCc3ccccc3)SC2)c(C)n1CC1CCCO1` (stereo unspecified), for which the EC50 was 13 µM (active) in the assay with H4, 61.9 µM (active) in assay [14], 0.553 µM (active) in assay [1] and > 29.9 µM (inactive) in “cells [2]”. Besides, the figures for the IC50 (in “cells [3]”; in assay [4]) were > 29.9 µM (inactive) and 2.84 µM (active), respectively.
On to `Nc1cc(Oc2ccc(Cl)cc2Cl)nc(N)n1`, for which the IC50 in assay [9] was 22.8 µM (inactive); in assay [10], 83.2 µM (inactive); in [11], 29.4 µM (inactive).
